Measured values: PubChem BioAssay AID330 (DTP/NCI, 2004)
Where “and” joins values, the source holds several entries; their conditions need not be identical. Equal values may be shown once. Inconclusive results and toxic doses are left out.

System: P388 leukemia ip, CD2F1 mice, survival T/C
Experiment: NCI In Vivo Anticancer Drug Screen. Data for tumor model P388 Leukemia (intraperitoneal) in CD2F1 (CDF1) mice
Settings: endpoint: median survival time, higher = longer survival
Method in brief: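 Mice carrying the transplanted tumor received test compound or vehicle. Survival was recorded in each group, and the value is the treated-group measurement divided by that of the vehicle-treated control group.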

[1] = dose: 25.0 mg/kg/injection, schedule: Q01DX009 (ip), vehicle: Klucel (hydroxypropylcellulose) (HPC)
[2] = dose: 50.0 mg/kg/injection, schedule: Q01DX009 (ip), vehicle: Klucel (hydroxypropylcellulose) (HPC)
[3] = dose: 100.0 mg/kg/injection, schedule: Q01DX009 (ip), vehicle: Klucel (hydroxypropylcellulose) (HPC)
[4] = dose: 200.0 mg/kg/injection, schedule: Q01DX009 (ip), vehicle: Klucel (hydroxypropylcellulose) (HPC)

Structure (SMILES): CSc1nc(-c2ccccc2)cc(=O)[nH]1
- T/C [1]: 106 % of control
- T/C [2]: 118 % of control
- T/C (dose: 50.0 mg/kg/injection, schedule: Q01DX009 (ip), vehicle: saline): 102 % of control
- T/C [3]: 112 % of control
- T/C (dose: 100.0 mg/kg/injection, schedule: Q01DX009 (ip), vehicle: saline): 108 % of control
- T/C [4]: 94 % of control
- T/C (dose: 200.0 mg/kg/injection, schedule: Q01DX009 (ip), vehicle: saline): 102 % of control

Structure (SMILES): CCN1C=C(C(=O)OC)C(N)=C(C#N)/C1=C\C=C(/C#N)C(=O)OC
- T/C (dose: 100.0 mg/kg/injection, schedule: Q04DX002 (ip), vehicle: Klucel (hydroxypropylcellulose) (HPC)): 92 % of control
- T/C (dose: 200.0 mg/kg/injection, schedule: Q04DX002 (ip), vehicle: Klucel (hydroxypropylcellulose) (HPC)): 101 % of control
- T/C (dose: 400.0 mg/kg/injection, schedule: Q04DX002 (ip), vehicle: Klucel (hydroxypropylcellulose) (HPC)): 89 % of control

Structure (SMILES): CC(OC1OC(C(=O)O)C(O)C(O)C1O)c1ccccc1 (stereo unspecified)
- T/C (dose: 200.0 mg/kg/injection, schedule: Q01DX009 (ip), vehicle: saline sonified): 100 % of control
- T/C (dose: 400.0 mg/kg/injection, schedule: Q01DX009 (ip), vehicle: saline sonified): 95 % of control

Structure (SMILES): Cc1nnc(C)s1
- T/C [2]: 102 % of control and 106 % of control and 98 % of control
- T/C [3]: 114 % of control and 96 % of control and 97 % of control
- T/C [4]: 101 % of control and 106 % of control
- T/C (dose: 600.0 mg/kg/injection, schedule: Q01DX009 (ip), vehicle: Klucel (hydroxypropylcellulose) (HPC)): 106 % of control

Structure (SMILES): Nc1nncc(-c2ccccc2)n1
- T/C [1]: 97 % of control
- T/C [2]: 97 % of control
- T/C [3]: 96 % of control
- T/C [4]: 110 % of control

Structure (SMILES): CCC(C)C1NC(=O)C(NC(=O)c2c3nc4c(C(=O)NC5C(=O)NC(C(C)CC)C(=O)N6CCCC6C(=O)N(C)CC(=O)N(C)C(C(C)C)C(=O)OC5C)cc([N+](=O)[O-])c(C)c4oc-3c(C)c(=O)c2N)C(C)OC(=O)C(C(C)C)N(C)C(=O)CN(C)C(=O)C2CCCN2C1=O (stereo unspecified)
- T/C (dose: 0.2 mg/kg/injection, schedule: Q01DX009 (ip), vehicle: Klucel (hydroxypropylcellulose) (HPC)): 168 % of control
- T/C (dose: 0.4 mg/kg/injection, schedule: Q01DX009 (ip), vehicle: Klucel (hydroxypropylcellulose) (HPC)): 228 % of control
- T/C (dose: 0.4 mg/kg/injection, schedule: Q01DX009 (ip), vehicle: water): 169 % of control
- T/C (dose: 0.6 mg/kg/injection, schedule: Q01DX009 (ip), vehicle: water): 193 % of control
- T/C (dose: 0.8 mg/kg/injection, schedule: Q01DX009 (ip), vehicle: Klucel (hydroxypropylcellulose) (HPC)): 92 % of control

Structure (SMILES): CCCCCCCCOC(=O)c1[nH]cnc1/N=N\N(C)C
- T/C (dose: 100.0 mg/kg/injection, schedule: Q04DX003 (ip), vehicle: Klucel (hydroxypropylcellulose) (HPC)): 109 % of control
- T/C (dose: 200.0 mg/kg/injection, schedule: Q04DX003 (ip), vehicle: Klucel (hydroxypropylcellulose) (HPC)): 113 % of control
- T/C (dose: 400.0 mg/kg/injection, schedule: Q04DX003 (ip), vehicle: Klucel (hydroxypropylcellulose) (HPC)): 104 % of control

Structure (SMILES): COC1CC(OC2CCC3(C)C(CCC45CCC(C6=CC(=O)OC6)C(C)(CCC43)C5=O)C2)OC(C)C1O (stereo unspecified)
- T/C (dose: 1.56 mg/kg/injection, schedule: Q01DX005 (ip), vehicle: Klucel (hydroxypropylcellulose) (HPC)): 90 % of control
- T/C (dose: 3.12 mg/kg/injection, schedule: Q01DX005 (ip), vehicle: Klucel (hydroxypropylcellulose) (HPC)): 97 % of control
- T/C (dose: 6.25 mg/kg/injection, schedule: Q01DX005 (ip), vehicle: Klucel (hydroxypropylcellulose) (HPC)): 100 % of control
- T/C (dose: 12.5 mg/kg/injection, schedule: Q01DX005 (ip), vehicle: Klucel (hydroxypropylcellulose) (HPC)): 88 % of control and 91 % of control

Structure (SMILES): COc1ccc(C(C)c2cc3c(cc2OC)OCO3)cc1O (stereo unspecified)
- T/C (dose: 50.0 mg/kg/injection, schedule: Q01DX005 (ip), vehicle: distilled water + Tween-80): 111 % of control
- T/C (dose: 100.0 mg/kg/injection, schedule: Q01DX005 (ip), vehicle: distilled water + Tween-80): 102 % of control
- T/C (dose: 200.0 mg/kg/injection, schedule: Q01DX005 (ip), vehicle: distilled water + Tween-80): 105 % of control

Structure (SMILES): Nc1ncnc2c1ncn2C1OC(COP(=O)(O)OP(=O)(O)OP(=O)(O)O)C(OP(=O)(O)OP(=O)(O)OP(=O)(O)O)C1O (stereo unspecified) (tested in a mixture with another compound)
- T/C (dose: 60.0 mg/kg/injection, schedule: Q01DX005 (ip), vehicle: Klucel (hydroxypropylcellulose) (HPC)): 93 % of control
- T/C (dose: 120.0 mg/kg/injection, schedule: Q01DX005 (ip), vehicle: Klucel (hydroxypropylcellulose) (HPC)): 103 % of control
- T/C (dose: 240.0 mg/kg/injection, schedule: Q01DX005 (ip), vehicle: Klucel (hydroxypropylcellulose) (HPC)): 101 % of control

Structure (SMILES): Cc1nn(-c2ccccc2)c2c1C(c1ccccc1)C(C#N)=C(N)O2 (stereo unspecified)
- T/C [2]: 100 % of control
- T/C [3]: 100 % of control
- T/C [4]: 100 % of control
